Source: patent US20140271670A1, “COMPOSITIONS FOR TREATING SKIN DISORDERS” (priority 2013, published 2014)

System: Propionibacterium acnes (ATCC #6919)
Assay: In vitro reduction of P. acnes population (plate counts after timed exposure)
Type: cell-based
Experimental: In vitro experiments show the effectiveness of a composition comprising salicylic acid and anti-P. acnes immunoglobulin at reducing a specific microorganism population.
The microorganism of interest in the described experiments was Propionibacterium acnes. A stock suspension of P. acnes was prepared by inoculating a sample of P. acnes (ATCC #6919) in Reinforced Clostria broth at 36±1° C. for 5 days anaerobically. This stock suspension was divided into four equal batches. The first batch served as a no treatment control group. The second batch was treated with 2% salicylic acid. The third batch was treated with 3 ppm anti-P. acnes IgY at 95% purity. The fourth batch was treated with 2% salicylic acid and 3 ppm anti-P. acnes IgY at 95% purity. At time intervals 30 seconds, 1 minute, 5 minutes, 12 hours, and 24 hours, 1.0 ml from the inoculated control and test batches was taken and placed into 9.0 ml of neutralizing broth (1:10 dilution). Additional dilutions were made using neutralizing broth to achieve 1:100, 1:1000 and 1:10,000 dilutions. One milliliter from each dilution was plated into TSA+5% sheep blood. The plates were incubated at 36±1° C. for 5 days anaerobically. After the incubation period, all plates were counted to determine the number of microorganism at each time point.

`O=C(O)c1ccccc1O` [2% SA, salicylic acid (o-hydroxybenzoic acid)] showed a number of microorganism (Exposure Time 30 sec.) of 7.20E+05, a number of microorganism (Exposure Time 12 hours) of under 10 and a number of microorganism (Exposure Time 24 hours) of under 10. For the same molecule, the number of microorganism (Exposure Time Initial, P. acnes stock suspension) was 8.20E+05, the “time after which a 99% kill rate was reached” value (used alone) was 12 h and the “reduction of the concentration of P. acnes” value (within the first 30 seconds) was “about 12%”.
